Laboratory results from ChEMBL document CHEMBL1201862, “PubChem BioAssay data set” (2004).
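Cultured in 96-well plates, cells were exposed to test compound for 48 hours across five concentrations. GI50 is the concentration that inhibits growth by half.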 Calls of active or inactive are those of the source. Rule as the data show it: active = GI50 up to about 1.1 µM and inactive = higher.

What was measured:
Test in all cases: NCI-60 cell line screen, 48 h
KM-20L2 = tested on: KM-20L2
DLD-1 = tested on: DLD-1
RXF 631 = tested on: RXF 631
T47D = tested on: T47D
XF498 = tested on: XF498
MCF7 = tested on: MCF7
MDA-N = tested on: MDA-N
DMS-114 = tested on: DMS-114
M19-MEL = tested on: M19-MEL

Row | Compound | GI50 (KM-20L2) | GI50 (DLD-1) | GI50 (RXF 631) | GI50 (T47D) | GI50 (XF498) | GI50 (MCF7) | GI50 (MDA-N) | GI50 (DMS-114) | GI50 (M19-MEL)
1 | CS(=O)(=O)c1nc(Cl)c(Cl)c(C#N)c1Cl | 6.03 µM (inactive) | 1.59 µM (inactive) | 20.2 µM (inactive) | 2.16 µM (inactive) | 3.09 µM (inactive) | 3.42 µM (inactive) | 1.83 µM (inactive) | 5.32 µM (inactive) | –
2 | Cc1cc(C)c(C(=O)OC(c2ccccc2)C(c2ccccc2)N2CCOCC2)c(C)c1 (stereo unspecified) | > 100 µM (inactive) | > 100 µM (inactive) | > 100 µM (inactive) | – | > 100 µM (inactive) | – | – | > 100 µM (inactive) | > 100 µM (inactive)
3 | CN1C(=O)C2C=CC1C1CCC2N(C)C1=O (stereo unspecified) | – | > 100 µM (inactive) | > 100 µM (inactive) | – | – | – | – | > 100 µM (inactive) | > 100 µM (inactive)
4 | Cn1c(=O)cc2[nH]c3ccccc3n2c1=O | 77.4 µM (inactive) | 40.2 µM (inactive) | 29.6 µM (inactive) | – | – | – | – | > 100 µM (inactive) | 33.7 µM (inactive)
5 | O=c1c2ccccc2[nH]c2c(O)ccc(O)c12 | 78.9 µM (inactive) | > 10 µM (inactive) | 21.8 µM (inactive) | – | 16.8 µM (inactive) | – | – | 17.9 µM (inactive) | 24.9 µM (inactive)
6 | OCC12C3C4C1C1C2C3C41CO (stereo unspecified) | > 100 µM (inactive) | > 100 µM (inactive) | > 100 µM (inactive) | – | > 100 µM (inactive) | – | – | > 100 µM (inactive) | > 100 µM (inactive)
7 | S=C1SCC2CCCN12 (stereo unspecified) | > 100 µM (inactive) | > 100 µM (inactive) | > 100 µM (inactive) | – | – | – | – | > 100 µM (inactive) | > 100 µM (inactive)
8 | CC1=C(O)C(=O)C2C(=O)C1C(C)C2c1ccc(Cl)cc1 (stereo unspecified) | – | > 100 µM (inactive) | > 100 µM (inactive) | – | > 100 µM (inactive) | – | – | – | > 100 µM (inactive)
9 | Cn1cnc([N+](=O)[O-])c1Sc1nc2ccccc2o1 | 4.66 µM (inactive) | 4.13 µM (inactive) | 4.05 µM (inactive) | – | 6.44 µM (inactive) | – | – | 2.14 µM (inactive) | 8.43 µM (inactive)
10 | CCCC/C=C1\CCC(CN2CCCCC2)C1=O (stereo unspecified) | 15.2 µM (inactive) | 1.76 µM (inactive) | 8.11 µM (inactive) | > 100 µM (inactive) | 2.3 µM (inactive) | > 100 µM (inactive) | > 100 µM (inactive) | 6.65 µM (inactive) | 8.36 µM (inactive)
11 | Cc1cc(=O)n(-c2cc3cccccc-3n2)[nH]1 | 38.4 µM (inactive) | 5.61 µM (inactive) | – | – | 4.03 µM (inactive) | – | – | 2.38 µM (inactive) | 3.95 µM (inactive)
12 | COc1ccc(/C(Cl)=C(\C=O)c2ccc([N+](=O)[O-])cc2)cc1 | 15 µM (inactive) | 16.7 µM (inactive) | 24.2 µM (inactive) | – | 14.8 µM (inactive) | – | – | 17.3 µM (inactive) | –
13 | O=C(CCc1cc(-c2ccco2)n(-c2ccc([N+](=O)[O-])cc2[N+](=O)[O-])n1)Nc1ccccc1 | > 100 µM (inactive) | > 100 µM (inactive) | > 100 µM (inactive) | – | > 100 µM (inactive) | – | – | > 100 µM (inactive) | > 100 µM (inactive)
14 | O=C1/C(=C/c2ccc(Cl)cc2)CCC1CCN1CCOCC1 (stereo unspecified) | 43.8 µM (inactive) | 61 µM (inactive) | 46.6 µM (inactive) | – | 56.6 µM (inactive) | – | – | 28.7 µM (inactive) | 72.9 µM (inactive)
15 | NC1CCC[C@H]1O (stereo partly specified) | > 100 µM (inactive) | > 100 µM (inactive) | > 100 µM (inactive) | – | > 100 µM (inactive) | – | – | > 100 µM (inactive) | > 100 µM (inactive)
16 | O=C(CC1Sc2ccccc2NC1=O)Nc1cccc(Cl)c1 (stereo unspecified) | 38.2 µM (inactive) | 48.4 µM (inactive) | – | – | 28 µM (inactive) | – | – | 34.2 µM (inactive) | 81.5 µM (inactive)
17 | Cc1cc(=O)cc2sc3c(C)cccc3nc1-2 | – | 22.1 µM (inactive) | > 100 µM (inactive) | – | – | – | – | – | 19.5 µM (inactive)
18 | C=C1C(=O)OC2C[C@H](C)C3CC(=O)C(C)=C3CC12 (stereo partly specified) | 14.8 µM (inactive) | 7.38 µM (inactive) | – | – | 16.5 µM (inactive) | – | – | 15 µM (inactive) | 13.2 µM (inactive)
19 | CN1CCc2c1nc(-c1ccc(Cl)cc1)c1c2N(C)CC1 | 0.514 µM (active) | 7.66 µM (inactive) | – | – | 10.1 µM (inactive) | – | – | 10.8 µM (inactive) | 9.14 µM (inactive)
20 | CC[C@@H](C)[C@@H]1NC(=O)C(C(C)=O)=C1O | 23.2 µM (inactive) | 20.9 µM (inactive) | 15.1 µM (inactive) | – | 80.9 µM (inactive) | – | – | 31.8 µM (inactive) | 11.9 µM (inactive)
